Test results taken from patent US7973056B2, “Triazole derivative or salt thereof” (Fujifilm Finechemicals Co., Ltd, priority 2008, dated 2011).

System: Candida albicans TIMM 1623
Assay: Antifungal activity test (in vivo), mouse systemic infection model
Set-up: survival rate: unit not given here
Conditions: for T/C (%): survival time of administration group / control group x100
Description: With respect to compounds I-1, I-3 and I-6 obtained in Examples 1, 3 and 6 respectively, therapeutic effects at the time of subcutaneous administration of compounds I-1, I-3 and I-6 on a mouse systemic infection model by Candida albicans TIMM 1623 were tested.
The test was carried out using 5 animals for each of the drug administration groups and Negative control group (sterile physiological saline administration group).
Each of compounds I-1, I-3 and I-6 was dissolved in and diluted with dimethyl sulfoxide (DMSO; Wako Pure Chemical Industries, Ltd.) and then prepared into a predetermined concentration by diluting with sterile physiological saline.
As the control experiment, Fluconazole (FLCZ, Flanos intravenous drip solution 100 mg; TOYAMA CHEMICAL CO, LTD.) diluted to a predetermined concentration with sterile physiological saline was used.
On the next day of the receipt of animals, body weights of mice were measured and CP (crude protein) was intraperitoneally administered at a dose of 200 mg/kg based on the individual body weight, and then they were reared for 3 days.
Cells of C. albicans TIMM 1623 cultured overnight at 35° C. on SDA (Sabouraud dextrose agar; Eiken Chemical Co., Ltd.) plate medium were suspended in sterile physiological saline and used as the Stock solution, and a portion thereof was diluted with 10% formalin (Wako Pure Chemical Industries, Ltd.). The number of cells in the diluted liquid was counted under a biological microscope using a hemocytometer, and then an inoculum was prepared by diluting the stock solution with sterile physiological saline (about 1.5×10^5 cells/ml). By inoculating 0.2 ml of this cell suspension through caudal vein, infection was induced. In this connection, the number of viable cells in the inoculum was verified by spreading the cell suspension optionally diluted with sterile physiological saline on an SDA plate medium and then culturing at 35° C. Each of the substances to be tested, control substance or sterile physiological saline was subcutaneously administered after 2 hours of the infection and for 3 days starting on the next day of infection once a day, a total of 4 times. After measuring individual body weight on the next day of infection, CP was again administered intraperitoneally at a dose of 100 mg/kg. The number of survived mice was observed and recorded for 14 days starting on the next day of infection.
The results were shown in Table 3 below and FIGS. 1A to 1D. In the table, the administration dose of the compounds of the present invention and the comparative compound represents a mg amount per 1 kg of a mouse weight (mg/kg).
Significant deference was tested, by 5% for both sides of the levels of significance, in accordance with the Kaplan-Meier method Logrank test (comparison of multiple groups), on the survival time distribution of each of the substances to be tested and control substance administration groups and sterile physiological saline administration group. SAS release 8.2 (SAS Institute Japan) was used in the Kaplan-Meier method Logrank test. (T/C(%)=[survival time of administration group (integrated value)/survival time of control group (integrated value)]×100)

Q: Which results are given for C[C@@H](N1CCC(c2ccccn2)CC1)[C@](O)(Cn1cncn1)c1ccc(F)cc1F [I-1, (2R,3R)-2-(2,4-difluorophenyl)-3-(4-pyridin-2-ylpiperidin-1-yl)-1-(1,2,4-triazol-1-yl)butan-2-ol]?
A: survival rate (0.1 mg/kg s.c., day 0): 100; survival rate (0.1 mg/kg s.c., day 1): 100; survival rate (0.1 mg/kg s.c., day 2): 100; survival rate (0.1 mg/kg s.c., day 3): 60; survival rate (0.1 mg/kg s.c., day 4): 60; survival rate (0.1 mg/kg s.c., day 5): 60; survival rate (0.1 mg/kg s.c., day 6): 60; survival rate (0.1 mg/kg s.c., day 7): 20; survival rate (0.1 mg/kg s.c., day 8): 20; survival rate (0.1 mg/kg s.c., day 9): 20; survival rate (0.1 mg/kg s.c., day 10): 20; survival rate (0.1 mg/kg s.c., day 11): 20; survival rate (0.1 mg/kg s.c., day 12): 0; T/C (%) (0.1 mg/kg s.c.): 103%; survival rate (1 mg/kg s.c., day 0): 100; survival rate (1 mg/kg s.c., day 1): 100; survival rate (1 mg/kg s.c., day 2): 100; survival rate (1 mg/kg s.c., day 3): 100; survival rate (1 mg/kg s.c., day 4): 100; survival rate (1 mg/kg s.c., day 5): 80; survival rate (1 mg/kg s.c., day 6): 80; survival rate (1 mg/kg s.c., day 7): 60; survival rate (1 mg/kg s.c., day 8): 60; survival rate (1 mg/kg s.c., day 9): 60; survival rate (1 mg/kg s.c., day 10): 40; survival rate (1 mg/kg s.c., day 11): 40; survival rate (1 mg/kg s.c., day 12): 40; survival rate (1 mg/kg s.c., day 13): 20; survival rate (1 mg/kg s.c., day 14): 20; T/C (%) (1 mg/kg s.c.): 161%; survival rate (10 mg/kg s.c., day 0): 100; survival rate (10 mg/kg s.c., day 1): 100; survival rate (10 mg/kg s.c., day 2): 100; survival rate (10 mg/kg s.c., day 3): 60; survival rate (10 mg/kg s.c., day 4): 60; survival rate (10 mg/kg s.c., day 5): 60; survival rate (10 mg/kg s.c., day 6): 60; survival rate (10 mg/kg s.c., day 7): 40; survival rate (10 mg/kg s.c., day 8): 40; survival rate (10 mg/kg s.c., day 9): 40; survival rate (10 mg/kg s.c., day 10): 40; survival rate (10 mg/kg s.c., day 11): 40; survival rate (10 mg/kg s.c., day 12): 40; survival rate (10 mg/kg s.c., day 13): 20; survival rate (10 mg/kg s.c., day 14): 20; T/C (%) (10 mg/kg s.c.): 132%

Q: With C[C@@H](N1CC=C(c2ccc(Cl)cn2)CC1)[C@](O)(Cn1cncn1)c1ccc(F)cc1F [I-6, (2R,3R)-3-(5-chloro-3′,6′-dihydro-2,4′-bipyridin-1′(2′H)-yl)-2-(2,4-difluorophenyl)-1-(1,2,4-triazol-1-yl)butan-2-ol] as the compound, how does the survival rate (0.1 mg/kg s.c., day 0) read?
A: The survival rate was 100.

Q: What about the survival rate (0.1 mg/kg s.c., day 1) of the same compound?
A: The survival rate was 100.

Q: And the survival rate (0.1 mg/kg s.c., day 2)?
A: Its survival rate is 100.

Q: What about the survival rate (0.1 mg/kg s.c., day 3) of the same compound?
A: Its survival rate is 100.

Q: What about the survival rate (0.1 mg/kg s.c., day 4) of the same compound?
A: Its survival rate is 100.

Q: What about the survival rate (0.1 mg/kg s.c., day 5) of the same compound?
A: Its survival rate is 100.

Q: And the survival rate (0.1 mg/kg s.c., day 6)?
A: Its survival rate is 100.

Q: And the survival rate (0.1 mg/kg s.c., day 7)?
A: The survival rate was 80.

Q: And the survival rate (0.1 mg/kg s.c., day 8)?
A: Its survival rate is 60.

Q: And the survival rate (0.1 mg/kg s.c., day 9)?
A: Its survival rate is 60.

Q: What about the survival rate (0.1 mg/kg s.c., day 10) of the same compound?
A: The survival rate was 60.

Q: And the survival rate (0.1 mg/kg s.c., day 11)?
A: Its survival rate is 60.

Q: And the survival rate (0.1 mg/kg s.c., day 12)?
A: The survival rate was 60.

Q: And the survival rate (0.1 mg/kg s.c., day 13)?
A: The survival rate was 60.

Q: And the survival rate (0.1 mg/kg s.c., day 14)?
A: The survival rate was 60.

Q: And the “T/C (%)” value (0.1 mg/kg s.c.)?
A: Its value is 194%.

Q: And the survival rate (1 mg/kg s.c., day 0)?
A: The survival rate was 100.

Q: And the survival rate (1 mg/kg s.c., day 1)?
A: Its survival rate is 100.

Q: And the survival rate (1 mg/kg s.c., day 2)?
A: Its survival rate is 100.

Q: What about the survival rate (1 mg/kg s.c., day 3) of the same compound?
A: The survival rate was 100.

Q: And the survival rate (1 mg/kg s.c., day 4)?
A: The survival rate was 100.

Q: What about the survival rate (1 mg/kg s.c., day 5) of the same compound?
A: Its survival rate is 100.

Q: And the survival rate (1 mg/kg s.c., day 6)?
A: The survival rate was 100.

Q: And the survival rate (1 mg/kg s.c., day 7)?
A: The survival rate was 100.

Q: What about the survival rate (1 mg/kg s.c., day 8) of the same compound?
A: The survival rate was 100.

Q: What about the survival rate (1 mg/kg s.c., day 9) of the same compound?
A: Its survival rate is 100.

Q: And the survival rate (1 mg/kg s.c., day 10)?
A: Its survival rate is 100.

Q: And the survival rate (1 mg/kg s.c., day 11)?
A: Its survival rate is 100.

Q: What about the survival rate (1 mg/kg s.c., day 12) of the same compound?
A: The survival rate was 100.

Q: And the survival rate (1 mg/kg s.c., day 13)?
A: Its survival rate is 100.

Q: And the survival rate (1 mg/kg s.c., day 14)?
A: The survival rate was 100.

Q: And the “T/C (%)” value (1 mg/kg s.c.)?
A: The value was 242%.

Q: And the survival rate (10 mg/kg s.c., day 0)?
A: Its survival rate is 100.

Q: What about the survival rate (10 mg/kg s.c., day 1) of the same compound?
A: Its survival rate is 100.

Q: What about the survival rate (10 mg/kg s.c., day 2) of the same compound?
A: Its survival rate is 100.

Q: And the survival rate (10 mg/kg s.c., day 3)?
A: The survival rate was 100.

Q: What about the survival rate (10 mg/kg s.c., day 4) of the same compound?
A: Its survival rate is 100.

Q: And the survival rate (10 mg/kg s.c., day 5)?
A: The survival rate was 100.

Q: What about the survival rate (10 mg/kg s.c., day 6) of the same compound?
A: The survival rate was 100.

Q: And the survival rate (10 mg/kg s.c., day 7)?
A: Its survival rate is 100.

Q: And the survival rate (10 mg/kg s.c., day 8)?
A: The survival rate was 100.

Q: What about the survival rate (10 mg/kg s.c., day 9) of the same compound?
A: The survival rate was 100.

Q: And the survival rate (10 mg/kg s.c., day 10)?
A: Its survival rate is 100.

Q: What about the survival rate (10 mg/kg s.c., day 11) of the same compound?
A: Its survival rate is 100.

Q: What about the survival rate (10 mg/kg s.c., day 12) of the same compound?
A: The survival rate was 100.

Q: What about the survival rate (10 mg/kg s.c., day 13) of the same compound?
A: Its survival rate is 100.

Q: And the survival rate (10 mg/kg s.c., day 14)?
A: The survival rate was 100.

Q: And the “T/C (%)” value (10 mg/kg s.c.)?
A: Its value is 242%.
